The source of these data is article PMC3423427, “Design and Synthesis of Potent N-Acylethanolamine-hydrolyzing Acid Amidase (NAAA) Inhibitor as Anti-Inflammatory Compounds” (PLoS ONE, 2012).

The test system of series [1] is NAAA. The note with it: cited from earlier work.
Series [2] concerns the target T1, rat FAAH (Rattus norvegicus, UniProt P97612).
T1 construct: made in house; host or cells: HEK293 cells stably overexpressing rat FAAH (HEK293-rFAAH), a gift from D. Piomelli; crude cell extract
T1 sequence (P97612 1-579): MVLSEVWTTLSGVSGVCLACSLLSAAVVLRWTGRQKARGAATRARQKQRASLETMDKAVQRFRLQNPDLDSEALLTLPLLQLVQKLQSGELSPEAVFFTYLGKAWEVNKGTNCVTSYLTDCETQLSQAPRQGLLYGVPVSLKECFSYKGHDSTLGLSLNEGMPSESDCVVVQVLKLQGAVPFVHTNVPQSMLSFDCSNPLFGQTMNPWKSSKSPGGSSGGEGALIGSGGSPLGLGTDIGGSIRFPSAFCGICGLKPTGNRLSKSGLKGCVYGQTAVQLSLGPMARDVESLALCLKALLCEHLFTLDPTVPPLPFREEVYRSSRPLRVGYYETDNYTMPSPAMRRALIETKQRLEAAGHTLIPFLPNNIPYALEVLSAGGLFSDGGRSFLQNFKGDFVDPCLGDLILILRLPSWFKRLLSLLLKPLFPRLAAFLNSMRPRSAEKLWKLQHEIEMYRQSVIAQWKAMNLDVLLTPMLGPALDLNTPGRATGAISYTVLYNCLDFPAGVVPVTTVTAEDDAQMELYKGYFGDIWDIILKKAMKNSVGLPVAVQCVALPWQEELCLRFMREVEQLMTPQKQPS
Kind of series: FAAH enzymatic assay (recombinant rFAAH protein, LC/MS). The note with it: for IC50: IC50 ± S.E.M., triplicate, 25 µM anandamide, pH 8.0. In kind it is biochemical.
Description: (§1) HEK293-rNAAA or HEK293-rFAAH cells were harvested, washed with PBS, sonicated in 20 mM Tris-HCl (pH 7.5) containing 0.32 M sucrose, and centrifuged at 800 × g for 15 min at 4°C. The supernatants were collected and protein concentrations were measured by BCA protein assay kit (Pierce, Shanghai, China). […] The reactions were terminated by adding 0.2 mL methanol containing 1 nmol heptadecanoic acid and analyzed in LC/MS.
(§2) We use an Agilent 1200-LC system coupled to a 3200Q TRAP-MS detector equipped with an ESI interface (Agilent Technologies, Shanghai, China). […] The column temperature was set at 40°C. […] Mass spectrometer (MS) detection was ionized by positive-ion atmospheric pressure chemical ionization mode (APCI^+) and monitored in MRM mode. […] Quantifications were calculated at chromatographic peak areas by using Analyst® version 1.4.1. software (Applied Biosystems).

Series [3] addresses T2, rat NAAA (Rattus norvegicus, UniProt Q5KTC7).
T2 construct: made in house; host or cells: HEK293 cells stably overexpressing rat NAAA (HEK293-rNAAA), a gift from D. Piomelli; crude 800 x g supernatant of sonicated cells
T2 sequence (Q5KTC7 34-362): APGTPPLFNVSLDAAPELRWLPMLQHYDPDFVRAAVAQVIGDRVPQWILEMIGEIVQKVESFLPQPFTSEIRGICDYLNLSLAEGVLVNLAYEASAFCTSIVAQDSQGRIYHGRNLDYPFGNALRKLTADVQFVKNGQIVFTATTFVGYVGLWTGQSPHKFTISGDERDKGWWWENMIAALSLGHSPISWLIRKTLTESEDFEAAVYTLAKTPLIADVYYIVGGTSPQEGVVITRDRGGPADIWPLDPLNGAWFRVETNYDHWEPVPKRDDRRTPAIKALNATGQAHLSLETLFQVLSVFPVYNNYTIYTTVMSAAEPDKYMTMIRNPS
Description: NAAA enzymatic assay (recombinant rNAAA protein, LC/MS).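 On all read-outs here: reaction product measured by LC/MS using positive APCI ionization with MRM monitoring, quantified from chromatographic peak areas.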 The settings on record: for IC50: IC50 ± S.E.M., triplicate, 25 µM heptadecenoylethanolamide, pH 5.0. Type of series: biochemical.
Description: as §1, §2

SMILES strings stand for the structures.

With `CCCCCCCCCCCCCCCNC(=O)C1CCCCC1` [CCP, N-Cyclohexanecarbonylpentadecylamine], in series [1], the “mode of NAAA inhibition” value is “reversible and non-competitive”.

One may read the IC50 as the concentration needed to halve the response being measured. `CCCCCCCCCCCCCCCC(=O)OC1CCCC1` [Compound 4, Cyclopentyl palmitate]: in series [2], the “inhibition ability on FAAH activity (in words)” value was “complete loss of the inhibition ability” and the IC50 was greater than 100 µM. Also, in series [3], the “inhibition ability on NAAA activity (in words)” value is “complete loss of the inhibition ability” and the IC50 was greater than 100 µM.

Turning to `CCCCCCCCCCCCCCCC(=O)N1CCCC1` [Compound 1, 1–Pentadecanyl–carbonyl pyrrolidine], the IC50 in series [2] amounted to 21.8 ± 4.45 µM; in series [3], 25 ± 5.7 µM.

Turning to `O=C(CCCCc1ccccc1)N1CCCC1` [Compound 10, 1–(4–Phenylbutanyl)–carbonyl pyrrolidine], the figures for the IC50 in series [2] and in series [3] were greater than 100 µM and 38.2 ± 3.79 µM, respectively.

For the compound `O=C(OCc1ccc(-c2ccccc2)cc1)C1CCCC1` [Compound 24, 4–Phenylbenzyl cyclopentanyl carboxylate], in series [2], the “inhibition ability on FAAH activity (in words)” value was “full loss of inhibition” and the IC50 is greater than 100 µM. Besides, in series [3], the “inhibition ability on NAAA activity (in words)” value was “full loss of inhibition” and the IC50 is greater than 100 µM.

Consider `O=C(CCc1ccc(OCc2ccccc2)cc1)N1CCCC1` [Compound 18, 1–(2–(4–Benzyloxy)phenyl)ethyl–carbonyl pyrrolidine], for which the IC50 in series [2] and in series [3] was greater than 100 µM each time.

With `CCCCCCCCCCCCCCCC(=O)NC1CCCC1` [Compound 2, N–Cyclopentylpalmitamide], in series [2], the “inhibition ability on FAAH activity (in words)” value is given as “complete loss of the inhibition ability” and the IC50 was greater than 100 µM. Further, in series [3], the “inhibition ability on NAAA activity (in words)” value is reported as “complete loss of the inhibition ability” and the IC50 is greater than 100 µM.

On to `O=C(CCCc1ccccc1)N1CCCC1` [Compound 9, 1–(3–Phenylpropanyl)–carbonyl pyrrolidine], for which the IC50 in series [2] and in series [3] was greater than 100 µM each time.

Turning to `O=C(CCCCCc1ccccc1)N1CCCC1` [Compound 11, 1–(5–Phenylpentanyl)–carbonyl pyrrolidine], the figures for the half-inhibitory concentration (IC50) in series [2] and in series [3] were greater than 100 µM and 34.6 ± 4.82 µM, respectively.

As for `O=C(NCc1ccc(-c2ccccc2)cc1)N1CCCC1` [Compound 21, N–(Biphenyl–4–ylmethyl)pyrrolidinyl–1–carboxamide], in series [2], the “inhibition ability on FAAH activity (in words)” value is reported as “full loss of inhibition” and the IC50 is greater than 100 µM. Also, in series [3], the “inhibition ability on NAAA activity (in words)” value is “full loss of inhibition” and the IC50 was greater than 100 µM.

For the compound `O=C(OCc1ccc(-c2ccccc2)cc1)N1CCCC1` [Compound 22, Biphenyl–4–ylmethyl pyrrolidinyl–1–carboxylate], in series [2], the “inhibition ability on FAAH activity (in words)” value is listed as “full loss of inhibition” and the IC50 is greater than 100 µM. In addition, in series [3], the “inhibition ability on NAAA activity (in words)” value was “full loss of inhibition” and the concentration for half-maximal inhibition (IC50) was greater than 100 µM.

With `O=C(Cc1ccc(OCc2ccccc2)cc1)N1CCCC1` [Compound 17, 1–(4–Benzyloxy)benzyl–carbonyl pyrrolidine], the IC50 in series [2] and in series [3] was greater than 100 µM throughout.

Consider `O=C(c1ccc(-c2ccccc2)cc1)N1CCCC1` [Compound 14, 1–(Biphenyl–4–ylcarbonyl)pyrrolidine], for which the IC50 in series [2] and in series [3] was greater than 100 µM throughout.

For `O=C(c1ccc2ccccc2c1)N1CCCC1` [Compound 19, 1–(2–Naphthalenyl)carbonyl pyrrolidine], the IC50 in series [2] and in series [3] was greater than 100 µM in each case.

Regarding `O=C(Cc1ccc(-c2ccccc2)cc1)N1CCCC1` [Compound 15, 1–(4–Phenylbenzyl)–carbonyl pyrrolidine], the IC50 in series [2] and in series [3] was greater than 100 µM throughout.

For the compound `O=C(CCCCCCCc1ccccc1)N1CCCC1` [Compound 13, 1–(7–Phenylheptanyl)–carbonyl pyrrolidine], the IC50 is greater than 100 µM in series [2] and 37.9 ± 4.58 µM in series [3].

Turning to `O=C(Cc1ccccc1)N1CCCC1` [Compound 7, 1–Benzyl–carbonyl pyrrolidine], the IC50 in series [2] and in series [3] was greater than 100 µM each time.

As to `O=C(CCCCCCc1ccccc1)N1CCCC1` [Compound 12, 1–(6–Phenylhexanyl)–carbonyl pyrrolidine], the IC50 in series [2] is greater than 100 µM; in series [3], 12.9 ± 3.47 µM.

Consider `c1ccc(-c2ccc(CCCN3CCCC3)cc2)cc1` [Compound 25, 1–(3–Biphenyl–4–ylpropyl)pyrrolidine], for which, in series [2], the “inhibition ability on FAAH activity (in words)” value is given as “full loss of inhibition” and the IC50 was greater than 100 µM. Moreover, in series [3], the “inhibition ability on NAAA activity (in words)” value is given as “full loss of inhibition” and the IC50 is greater than 100 µM.

For the compound `O=C(CCc1ccccc1)N[C@H]1COC1=O` [(S)-OOPP, (S)-N-(2-oxo-3-oxetanyl)-3-phenylpropionamide], in series [1], the “potency as NAAA inhibitor relative to CCP” value is reported as “about 10 fold”.

For orientation: melting point means the temperature of the solid-liquid transition. As for `CCCCCCCCCCCCCCCC(=O)n1cccc1` [Compound 6, 1–Pentadecanyl–carbonyl pyrrole], the melting point lay within 57.9 to 60.2 °C. In series [2], the “inhibition ability on FAAH activity (in words)” value is “complete loss of the inhibition ability” and the IC50 is greater than 100 µM. In series [3], the “inhibition ability on NAAA activity (in words)” value is recorded as “complete loss of the inhibition ability” and the IC50 is greater than 100 µM.

On to `O=C(Cc1ccc2ccccc2c1)N1CCCC1` [Compound 20, 1–(2–Naphthalenyl)acetyl pyrrolidine], for which the IC50 in series [2] and in series [3] was greater than 100 µM in each case.

Take `CCCCCCCCCCCCCCCC(=O)N1CCCCC1` [Compound 3, Pentadecanyl–carbonyl piperidine]: in series [2], the “inhibition ability on FAAH activity (in words)” value was “complete loss of the inhibition ability” and the IC50 is greater than 100 µM. In series [3], the “inhibition ability on NAAA activity (in words)” value is reported as “complete loss of the inhibition ability” and the IC50 is greater than 100 µM.

As for `O=C(NCc1ccc(-c2ccccc2)cc1)C1CCCC1` [Compound 23, 4–Phenylbenzyl cyclopentanyl carboxamide], the melting point lay in the range of 151.8 to 154.6 °C. Besides, in series [2], the “inhibition ability on FAAH activity (in words)” value is listed as “full loss of inhibition” and the IC50 is greater than 100 µM. For the same compound, in series [3], the “inhibition ability on NAAA activity (in words)” value is listed as “full loss of inhibition” and the IC50 was greater than 100 µM.

Regarding `CCCCCCCCCCCCCCCC(=O)OC1CCOC1` (stereo not drawn) [Compound 5, Tetrahydrofuran–3–yl palmitate], in series [2], the “inhibition ability on FAAH activity (in words)” value is “complete loss of the inhibition ability” and the IC50 is greater than 100 µM. Moreover, in series [3], the “inhibition ability on NAAA activity (in words)” value is on record as “complete loss of the inhibition ability” and the IC50 was greater than 100 µM.

Take `O=C(CCc1ccccc1)N1CCCC1` [Compound 8, 1–(2–Phenylethyl)–carbonyl pyrrolidine]: the IC50 in series [2] and in series [3] was greater than 100 µM in each case.
